# In patent EP1832576A1, “4-Biarylyl-1-phenolyzetidin-2-ones” (Microbia Inc., priority 2003, dated 2005):
# Test system: cholesterol absorption from the intestine
# Experiment: In Vivo Assay of Hypolipidemic Agents using the Rat Cholesterol Absorption Model
# Set-up: species or system Female Sprague-Dawley rats
# Conditions: po, Table 1, footnote 1, perorally, 10 mg/kg, 3H levels in serum three hours after 3H-cholesterol
# Protocol: In Vivo Assay of Hypolipidemic Agents using the Rat Cholesterol Absorption Model. This model is based on models described by Burnett et al (2002), Bioorg. Med. Chem. Lett. 2002 Feb 11;12(3):315-8 and J. Lipid Res. 1999 Oct;40(10):1747-57. Female Sprague-Dawley rats weighing 150-250g are separated into […] and fasted overnight. The animals (4-6/group) are dosed perorally with 300µL test compounds in olive oil or suitable vehicle. Thirty minutes later, 3-5 microCuries ^3H-cholesterol per rat are delivered perorally in 300 µL olive oil. After three hours, 200 µL serum is collected, vortexed with scintillation fluid, and measured for radioactivity in a scintillation counter. Percent inhibition is defined as 100*(1-Ctest/Cctrl), where Ctest and Cctrl refer to ^3H levels in serum for the test compound and for the vehicle only control, respectively. Percent inhibition values are reported for a fixed dose. The ED50 is the dose at which the half-maximal effect on serum ^3H levels is observed for a given test compound.
# Representative compounds of the invention were tested in the Rat Cholesterol Absorption model above.
row,SMILES,inhibition at 10 mg/kg [%]
1,"O=C1[C@H](CC[C@H](O)c2ccc(F)cc2)[C@@H](c2ccc(-c3ccccc3)cc2)N1c1ccc(F)cc1 [Example 3, (3R,4S)-4-Biphenyl-4-yl-1-(4-fluorophenyl)-3-[(3S)-3-(4-fluorophenyl)-3-hydroxypropyl]azetidin-2-one]",15

# Same assay, conditions: po, Table 1, perorally, 1 mg/kg, 3H levels in serum three hours after 3H-cholesterol, versus vehicle only control
row,SMILES,inhibition at 1 mg/kg [%]
1,"COc1cccc(-c2ccc([C@@H]3[C@@H](CC[C@H](O)c4ccc(F)cc4)C(=O)N3c3ccc(F)cc3)cc2)c1OC [Example 11, (3R,4S)-4-(2',3'-dimethoxybiphenyl-4-yl)-1-(4-fluorophenyl)-3-[(3S)-3-(4-fluorophenyl)-3-hydroxypropyl]azetidin-2-one]",28
2,"O=C(O)Cc1ccc(-c2ccc([C@@H]3[C@@H](CC[C@H](O)c4ccc(F)cc4)C(=O)N3c3ccc(F)cc3)cc2)cc1 [Example 88, (4'-{(2S,3R)-1-(4-fluorophenyl)-3-[(3S)-3-(4-fluorophenyl)-3-hydroxypropyl]-4-oxoazetidin-2-yl}biphenyl-4-yl)acetic acid]",30
3,"O=C(O)c1ccc(-c2ccc([C@@H]3[C@@H](CC[C@H](O)c4ccc(F)cc4)C(=O)N3c3ccc(F)cc3)cc2)cc1O [Example 110, 4'-{(2S,3R)-1-(4-fluorophenyl)-3-[(3S)-3-(4-fluorophenyl)-3-hydroxypropyl]-4-oxoazetidin-2-yl}-3-hydroxybiphenyl-4-carboxylic acid]",72
4,"CN(C)c1ccc(-c2ccc([C@@H]3[C@@H](CC[C@H](O)c4ccc(F)cc4)C(=O)N3c3ccc(F)cc3)cc2)cc1 [Example 17, (3R,4S)-4-[4'(dimethylamino)biphenyl-4-yl]-1-(4-fluorophenyl)-3-[(3S)-3-(4-fluorophenyl)-3-hydroxypropyl]azetidin-2-one]",43
5,"CCCCOc1cccc(-c2ccc([C@@H]3[C@@H](CC[C@H](O)c4ccc(F)cc4)C(=O)N3c3ccc(F)cc3)cc2)c1 [Example 109, (3R,4S)-4-(3'-butoxybiphenyl-4-yl)-1-(4-fluorophenyl)-3-[(3S)-3-(4-fluorophenyl)-3-hydroxypropyl]azetidin-2-one]",52
6,"COc1cc(OC)cc(-c2ccc([C@@H]3[C@@H](CC[C@H](O)c4ccc(F)cc4)C(=O)N3c3ccc(F)cc3)cc2)c1 [Example 107, (3R,4S)-4-(3',5'-dimethoxybiphenyl-4-yl)-1-(4-fluorophenyl)-3-[(3S)-3-(4-fluorophenyl)-3-hydroxypropyl]azetidin-2-one]",49
7,"Nc1ccc(-c2ccc([C@@H]3[C@@H](CC[C@H](O)c4ccc(F)cc4)C(=O)N3c3ccc(F)cc3)cc2)cc1 [Example 28, (3R,4S)-1-(4-fluorophenyl)-3-[(3S)-3-(4-fluorophenyl)-3-hydroxypropyl]-4-(4'-aminobiphenyl-4-yl)azetidin-2-one]",56
8,"O=C1[C@H](CC[C@H](O)c2ccc(F)cc2)[C@@H](c2ccc(-c3cccc(OC[C@@H](O)[C@@H](O)[C@H](O)[C@@H](O)CO)c3)cc2)N1c1ccc(F)cc1 [Example 78, 6-O-(4'-{(2S,3R)-1-(4-Fluorophenyl)-3-[(3S)-3-(4-fluorophenyl)-3-hydroxypropyl]-4-oxoazetidin-2-yl}biphenyl-3-yl)-D-glucitol]",51
9,"C[N+](C)(C)c1cccc(-c2ccc([C@@H]3[C@@H](CC[C@H](O)c4ccc(F)cc4)C(=O)N3c3ccc(F)cc3)cc2)c1 [Example 120, 4'-{(2S,3R)-1-(4-fluorophenyl)-3-[(3S)-3-(4-fluorophenyl)-3-hydroxypropyl]-4-oxoazetidin-2-yl}-N,N,N-trimethylbiphenyl-3-aminium]",23
10,"CN(C)S(=O)(=O)c1ccc(-c2ccc([C@@H]3[C@@H](CC[C@H](O)c4ccc(F)cc4)C(=O)N3c3ccc(F)cc3)cc2)cc1 [Example 15, 4'-{(2S,3R)-1-(4-fluorophenyl)-3-[(3S)-3-(4-fluorophenyl)-3-hydroxypropyl]-4-oxoazetidin-2-yl}-biphenyl-N,N-dimethylbiphenyl-4-sulfonamide]",8
11,"O=C1[C@H](CC[C@H](O)c2ccc(F)cc2)[C@@H](c2ccc(-c3cccc(B(O)O)c3)cc2)N1c1ccc(F)cc1 [Example 115, (4'-{(2S,3R)-1-(4-fluorophenyl)-3-[(3S)-3-(4-fluorophenyl)-3-hydroxypropyl]-4-oxoazetidin-2-yl}biphenyl-3-yl)boronic acid]",70
12,"CCCOc1cccc(-c2ccc([C@@H]3[C@@H](CC[C@H](O)c4ccc(F)cc4)C(=O)N3c3ccc(F)cc3)cc2)c1 [Example 103, (3R,4S)-1-(4-fluorophenyl)-3-[(3S)-3-(4-fluorophenyl)-3-hydroxypropyl]-4-(3'-propoxybiphenyl-4-yl)azetidin-2-one]",21
13,"O=C1[C@H](CC[C@H](O)c2ccc(F)cc2)[C@@H](c2ccc(-c3cc(O)ccc3Br)cc2)N1c1ccc(F)cc1 [Example 19, (3R,4S)-4-(2'-bromo-5'-hydroxybiphenyl-4-yl)-1-(4-fluorophenyl)-3-[(3S)-3-(4-fluorophenyl)-3-hydroxypropyl]azetidin-2-one]",66
14,O=C1C(CCC(O)c2ccc(F)cc2)C(c2ccc(-c3ccc(CO)cc3)cc2)N1c1ccc(F)cc1 (stereo not drawn) [Example 18],48

# Same assay, conditions: po, Table 2, perorally, 1 mg/kg, 3H levels in serum three hours after 3H-cholesterol, versus vehicle only control
row,SMILES,inhibition at 1 mg/kg [%]
1,"O=C1[C@H](CC[C@H](O)c2ccc(F)cc2)[C@@H](c2ccc(-c3cccc(B(O)O)c3)cc2)N1c1ccccc1 [Example 59, (4'-{(2S,3R)-3-[(3S)-3-(4-Fluorophenyl)-3-hydroxypropyl]-4-oxo-1-phenylazetidin-2-yl}biphenyl-3-yl)boronic acid]",70
2,O=C1C(CCC(O)c2ccc(F)cc2)C(c2cccc(-c3ccc(O)cc3)c2)N1c1ccc(F)cc1 (stereo not drawn) [Example 46],30
3,"O=C1[C@H](CC[C@H](O)c2ccc(F)cc2)[C@@H](c2ccc(-c3cccc(O)c3)cc2)N1c1ccccc1 [Example 57, (3R,4S)-3-[(3S)-3-(4-Fluorophenyl)-3-hydroxypropyl]-4-(3'-hydroxybiphenyl-4-yl)-1-phenylazetidin-2-one]",73
4,"O=C1[C@H](CC[C@H](O)c2ccc(F)cc2)[C@@H](c2ccc(-c3cccc(O)c3)cn2)N1c1ccccc1 [Example 49, (3R,4S)-3-[(3S)-3-(4-fluorophenyl)-3-hydroxypropyl]-4-[5-(3-hydroxyphenyl)pyridin-2-yl]-1-phenylazetidin-2-one]",30
5,"CS(=O)(=O)c1cccc(-c2ccc([C@@H]3[C@@H](CC[C@H](O)c4ccc(F)cc4)C(=O)N3c3ccccc3)c(O)c2)c1 [Example 123, (3R,4S)-3-[(3S)-3-(4-fluorophenyl)-3-hydroxypropyl]-4-[3-hydroxy-3'-(methylsulfonyl)biphenyl-4-yl]-1-phenylazetidin-2-one]",72
6,"O=C1[C@H](CC[C@H](O)c2ccc(F)cc2)[C@@H](c2ccc(-c3cccc([C@H](O)[C@H]4OC(O)[C@H](O)[C@@H](O)[C@@H]4O)c3)cc2)N1c1ccccc1 (stereo partly drawn) [Example 71, (6S)-6-C-(4'-{(2S,3R)-3-[(3S)-3-(4-Fluorophenyl)-3-hydroxypropyl]-4-oxo-1-phenylazetidin-2-yl}biphenyl-3-yl)-D-glucopyranose]",65
